# Test results reported in ChEMBL document CHEMBL4364276, “Discovery of 4-phenyl-2H-benzo[b][1,4]oxazin-3(4H)-one derivatives as potent and orally active PI3K/mTOR dual inhibitors” (Eur J Med Chem, 2019).
# Key:
# [1] = Inhibition of PI3K/Akt/mTOR signaling in human HeLa cells assessed as reduction in AKT 308 phosphorylation incubated for 24 hrs by Western blot analysis; assay type: cell-based
# [2] = biological target: Tyrosine-protein kinase ABL1 (Homo sapiens) (UniProt P00519); assay: Inhibition of human ABL1 at 100 nM using EAIYAAPFAKKK as substrate by [gamma-33P]-ATP assay
# [3] = biological target: RAC-gamma serine/threonine-protein kinase (Homo sapiens) (UniProt Q9Y243); assay: Inhibition of human AKT3 at 100 nM using KGSGSGRPRTSSFAEG as substrate by [gamma-33P]-ATP assay
# [4] = biological target: Activin receptor type-1B (Homo sapiens) (UniProt P36896); assay: Inhibition of human ALK4 at 100 nM using casein as substrate by [gamma-33P]-ATP assay
# [5] = biological target: NUAK family SNF1-like kinase 1 (Homo sapiens) (UniProt O60285); assay: Inhibition of human ARK5 at 100 nM using KKKVSRSGLYRSPSMPENLNRPR as substrate by [gamma-33P]-ATP assay
# [6] = biological target: Mitogen-activated protein kinase kinase kinase 5 (Homo sapiens) (UniProt Q99683); assay: Inhibition of human ASK1 at 100 nM using MBP as substrate by [gamma-33P]-ATP assay
# [7] = biological target: Serine/threonine-protein kinase BRSK1 (Homo sapiens) (UniProt Q8TDC3); assay: Inhibition of human BRSK1 at 100 nM using KKKVSRSGLYRSPSMPENLNRPR as substrate by [gamma-33P]-ATP assay
# [8] = biological target: Calcium/calmodulin-dependent protein kinase type 1B (Homo sapiens) (UniProt Q6P2M8); assay: Inhibition of human CAMK1B at 100 nM using KKALRRQETVDAL as substrate by [gamma-33P]-ATP assay
# [9] = biological target: CDK2/Cyclin A2 (Homo sapiens) (UniProt P24941+P20248); assay: Inhibition of human CDK2/cyclin-A at 100 nM using histone H1 as substrate by [gamma-33P]-ATP assay; assay type: protein-complex assay
# [10] = biological target: CDK2/Cyclin O (Homo sapiens) (UniProt P24941+P22674); assay: Inhibition of human CDK2/cyclin-O at 100 nM using histone H1 as substrate by [gamma-33P]-ATP assay; assay type: protein-complex assay
# [11] = biological target: CDK8/Cyclin C (Homo sapiens) (UniProt P49336+P24863); assay: Inhibition of human CDK8/cyclin-C at 100 nM using KKKVSRSGLYRSPSMPENLNRPR as substrate by [gamma-33P]-ATP assay; assay type: protein-complex assay
# [12] = biological target: Casein kinase I isoform alpha (Homo sapiens) (UniProt P48729); assay: Inhibition of human CK1a1 at 100 nM using KRRRAL[pS]VASLPGL as substrate by [gamma-33P]-ATP assay
# [13] = biological target: Megakaryocyte-associated tyrosine-protein kinase (Homo sapiens) (UniProt P42679); assay: Inhibition of human CTK at 100 nM using poly[Glu:Tyr] (4:1) as substrate by [gamma-33P]-ATP assay
# [14] = biological target: Ephrin type-A receptor 5 (Homo sapiens) (UniProt P54756); assay: Inhibition of human EPHA5 at 100 nM using poly[Glu:Tyr] (4:1) as substrate by [gamma-33P]-ATP assay
# [15] = biological target: Mitogen-activated protein kinase 1 (Homo sapiens) (UniProt P28482); assay: Inhibition of human ERK2 at 100 nM using MBP as substrate by [gamma-33P]-ATP assay
# [16] = biological target: Mitogen-activated protein kinase 8 (Homo sapiens) (UniProt P45983); assay: Inhibition of human JNK1 at 100 nM using ATF2 as substrate by [gamma-33P]-ATP assay
# [17] = biological target: Mitogen-activated protein kinase 10 (Homo sapiens) (UniProt P53779); assay: Inhibition of human JNK3 at 100 nM using ATF2 as substrate by [gamma-33P]-ATP assay
# [18] = biological target: Tyrosine-protein kinase Lyn (Homo sapiens) (UniProt P07948); assay: Inhibition of human LYN at 100 nM using poly[Glu:Tyr] (4:1) as substrate by [gamma-33P]-ATP assay
# [19] = biological target: Mitogen-activated protein kinase kinase kinase 10 (Homo sapiens) (UniProt Q02779); assay: Inhibition of human MLK2 at 100 nM using MBP as substrate by [gamma-33P]-ATP assay
# [20] = biological target: Serine/threonine-protein kinase 3 (Homo sapiens) (UniProt Q13188); assay: Inhibition of human MST2 at 100 nM using MBP as substrate by [gamma-33P]-ATP assay
# [21] = biological target: Serine/threonine-protein kinase Nek3 (Homo sapiens) (UniProt P51956); assay: Inhibition of human NEK3 at 100 nM using MBP as substrate by [gamma-33P]-ATP assay
# [22] = biological target: Serine/threonine-protein kinase pim-2 (Homo sapiens) (UniProt Q9P1W9); assay: Inhibition of human PIM2 at 100 nM using RSRHSSYPAGT as substrate by [gamma-33P]-ATP assay
# [23] = biological target: Protein kinase C beta type (Homo sapiens) (UniProt P05771); assay: Inhibition of human PKCb1 at 100 nM using Histone H1 as substrate by [gamma-33P]-ATP assay
# [24] = biological target: Serine/threonine-protein kinase D3 (Homo sapiens) (UniProt O94806); assay: Inhibition of human PKCnu at 100 nM using KKLNRTLSVA as substrate by [gamma-33P]-ATP assay
# [25] = biological target: Protein-tyrosine kinase 2-beta (Homo sapiens) (UniProt Q14289); assay: Inhibition of human PYK2 at 100 nM using poly[Glu:Tyr] (4:1) as substrate by [gamma-33P]-ATP assay
# [26] = biological target: Tyrosine-protein kinase Srms (Homo sapiens) (UniProt Q9H3Y6); assay: Inhibition of human SRMS at 100 nM using poly[Glu:Tyr] (4:1) as substrate by [gamma-33P]-ATP assay
# [27] = biological target: Tyrosine-protein kinase Tec (Homo sapiens) (UniProt P42680); assay: Inhibition of human TEC at 100 nM using poly[Glu:Tyr] (4:1) as substrate by [gamma-33P]-ATP assay
# [28] = biological target: Tau-tubulin kinase 2 (Homo sapiens) (UniProt Q6IQ55); assay: Inhibition of human TTBK2 at 100 nM using MBP as substrate by [gamma-33P]-ATP assay
# [29] = biological target: Serine/threonine-protein kinase WNK2 (Homo sapiens) (UniProt Q9Y3S1); assay: Inhibition of human WNK2 at 100 nM using MBP as substrate by [gamma-33P]-ATP assay
# [30] = biological target: Death-associated protein kinase 3 (Homo sapiens) (UniProt O43293); assay: Inhibition of human ZIPK at 100 nM using KKLNRTLSFAEPG as substrate by [gamma-33P]-ATP assay
# [31] = biological target: Receptor-interacting serine/threonine-protein kinase 4 (Homo sapiens) (UniProt P57078); assay: Inhibition of human RIPK4 at 100 nM using histone H2A as substrate by [gamma-33P]-ATP assay
# Chain of Serine/threonine-protein kinase D3 (Homo sapiens) (O94806 whole entry): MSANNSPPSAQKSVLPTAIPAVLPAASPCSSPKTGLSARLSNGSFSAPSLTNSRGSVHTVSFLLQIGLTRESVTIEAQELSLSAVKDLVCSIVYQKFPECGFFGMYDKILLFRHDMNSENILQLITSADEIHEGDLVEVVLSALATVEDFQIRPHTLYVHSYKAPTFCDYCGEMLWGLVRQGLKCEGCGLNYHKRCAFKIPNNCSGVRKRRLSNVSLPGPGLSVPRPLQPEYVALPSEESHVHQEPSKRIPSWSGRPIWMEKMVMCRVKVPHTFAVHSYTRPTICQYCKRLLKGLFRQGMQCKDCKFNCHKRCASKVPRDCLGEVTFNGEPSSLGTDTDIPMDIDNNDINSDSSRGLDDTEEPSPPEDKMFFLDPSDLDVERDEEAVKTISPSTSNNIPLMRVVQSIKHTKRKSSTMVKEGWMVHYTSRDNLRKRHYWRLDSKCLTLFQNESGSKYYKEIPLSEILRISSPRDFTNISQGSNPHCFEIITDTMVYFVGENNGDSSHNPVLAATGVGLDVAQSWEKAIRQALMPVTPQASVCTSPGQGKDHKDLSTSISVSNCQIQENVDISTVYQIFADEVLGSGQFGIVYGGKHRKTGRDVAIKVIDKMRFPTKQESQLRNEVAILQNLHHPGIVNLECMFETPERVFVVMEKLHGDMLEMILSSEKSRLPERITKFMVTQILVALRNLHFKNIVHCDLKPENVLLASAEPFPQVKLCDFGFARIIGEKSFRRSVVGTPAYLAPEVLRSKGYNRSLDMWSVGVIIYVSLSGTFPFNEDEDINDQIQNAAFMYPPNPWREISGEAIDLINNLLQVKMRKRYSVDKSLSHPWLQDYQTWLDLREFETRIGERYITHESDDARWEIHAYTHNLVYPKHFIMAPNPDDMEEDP
# Chain of Tyrosine-protein kinase ABL1 (Homo sapiens) (P00519 whole entry): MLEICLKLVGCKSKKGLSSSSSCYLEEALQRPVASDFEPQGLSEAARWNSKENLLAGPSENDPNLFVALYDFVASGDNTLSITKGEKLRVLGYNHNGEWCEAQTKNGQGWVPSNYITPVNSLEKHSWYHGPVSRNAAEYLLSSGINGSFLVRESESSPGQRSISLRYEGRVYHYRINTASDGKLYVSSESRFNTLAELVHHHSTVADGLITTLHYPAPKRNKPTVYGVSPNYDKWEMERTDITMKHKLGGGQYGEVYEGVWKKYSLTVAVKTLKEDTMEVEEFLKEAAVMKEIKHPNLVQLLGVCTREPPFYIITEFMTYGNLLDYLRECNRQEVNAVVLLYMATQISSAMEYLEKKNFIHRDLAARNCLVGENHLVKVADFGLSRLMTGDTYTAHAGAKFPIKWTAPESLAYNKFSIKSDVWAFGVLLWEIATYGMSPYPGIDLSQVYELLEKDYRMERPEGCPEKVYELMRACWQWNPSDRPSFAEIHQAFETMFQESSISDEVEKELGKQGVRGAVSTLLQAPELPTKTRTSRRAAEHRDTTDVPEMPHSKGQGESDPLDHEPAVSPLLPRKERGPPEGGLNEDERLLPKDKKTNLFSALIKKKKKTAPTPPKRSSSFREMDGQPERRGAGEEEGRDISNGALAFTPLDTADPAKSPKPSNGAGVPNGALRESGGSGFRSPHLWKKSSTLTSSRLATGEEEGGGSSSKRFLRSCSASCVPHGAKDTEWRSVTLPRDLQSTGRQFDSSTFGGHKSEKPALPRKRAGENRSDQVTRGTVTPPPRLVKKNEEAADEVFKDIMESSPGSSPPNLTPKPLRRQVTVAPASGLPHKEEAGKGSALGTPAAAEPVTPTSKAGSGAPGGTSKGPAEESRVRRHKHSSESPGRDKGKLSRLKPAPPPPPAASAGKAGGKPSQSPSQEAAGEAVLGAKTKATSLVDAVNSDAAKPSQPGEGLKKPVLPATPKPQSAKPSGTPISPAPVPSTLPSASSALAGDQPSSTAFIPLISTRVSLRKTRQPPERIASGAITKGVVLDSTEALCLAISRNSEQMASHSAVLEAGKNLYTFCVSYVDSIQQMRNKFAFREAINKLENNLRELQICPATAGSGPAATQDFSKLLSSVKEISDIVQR
# Chain of Tyrosine-protein kinase Lyn (Homo sapiens) (P07948 2-512 limits assumed): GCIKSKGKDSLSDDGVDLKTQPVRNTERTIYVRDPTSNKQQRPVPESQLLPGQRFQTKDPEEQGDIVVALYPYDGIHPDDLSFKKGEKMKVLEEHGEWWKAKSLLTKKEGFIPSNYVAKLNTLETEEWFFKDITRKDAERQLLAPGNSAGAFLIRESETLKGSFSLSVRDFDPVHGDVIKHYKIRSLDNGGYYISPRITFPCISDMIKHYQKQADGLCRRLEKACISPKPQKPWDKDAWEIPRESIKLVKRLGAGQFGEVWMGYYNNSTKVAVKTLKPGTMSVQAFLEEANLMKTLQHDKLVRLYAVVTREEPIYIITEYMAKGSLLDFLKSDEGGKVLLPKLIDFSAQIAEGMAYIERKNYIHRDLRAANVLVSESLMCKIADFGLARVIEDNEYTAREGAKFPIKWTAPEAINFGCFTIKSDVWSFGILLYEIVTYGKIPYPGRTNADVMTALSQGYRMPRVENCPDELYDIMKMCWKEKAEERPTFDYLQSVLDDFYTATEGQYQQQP
# Chain of Protein-tyrosine kinase 2-beta (Homo sapiens) (Q14289 whole entry, looked up): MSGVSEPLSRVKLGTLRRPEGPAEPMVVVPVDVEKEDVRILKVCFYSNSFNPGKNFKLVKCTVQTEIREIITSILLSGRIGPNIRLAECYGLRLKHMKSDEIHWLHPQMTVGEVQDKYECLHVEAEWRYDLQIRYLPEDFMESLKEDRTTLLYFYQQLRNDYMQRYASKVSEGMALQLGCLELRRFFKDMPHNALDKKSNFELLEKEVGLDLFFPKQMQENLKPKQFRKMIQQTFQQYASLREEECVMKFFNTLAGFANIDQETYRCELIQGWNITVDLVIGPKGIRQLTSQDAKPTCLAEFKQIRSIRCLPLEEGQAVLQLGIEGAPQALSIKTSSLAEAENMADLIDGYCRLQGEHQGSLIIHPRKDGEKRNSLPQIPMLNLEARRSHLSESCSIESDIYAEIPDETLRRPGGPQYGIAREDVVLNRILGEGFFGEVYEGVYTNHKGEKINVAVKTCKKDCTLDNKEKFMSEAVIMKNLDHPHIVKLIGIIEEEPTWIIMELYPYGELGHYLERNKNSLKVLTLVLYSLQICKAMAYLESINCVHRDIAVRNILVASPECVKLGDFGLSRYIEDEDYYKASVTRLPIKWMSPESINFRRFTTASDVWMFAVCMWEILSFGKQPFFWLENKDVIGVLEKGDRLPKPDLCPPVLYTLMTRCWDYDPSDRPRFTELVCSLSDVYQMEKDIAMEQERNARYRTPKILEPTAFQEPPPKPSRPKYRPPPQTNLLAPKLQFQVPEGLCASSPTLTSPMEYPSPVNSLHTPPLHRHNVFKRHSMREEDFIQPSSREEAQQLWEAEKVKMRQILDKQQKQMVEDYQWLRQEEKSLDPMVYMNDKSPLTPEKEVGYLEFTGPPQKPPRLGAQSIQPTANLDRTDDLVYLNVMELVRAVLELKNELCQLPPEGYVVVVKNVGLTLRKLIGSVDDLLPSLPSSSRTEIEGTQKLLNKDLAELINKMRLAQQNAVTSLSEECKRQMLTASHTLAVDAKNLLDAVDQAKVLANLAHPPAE
# Chain of Mitogen-activated protein kinase 8 (Homo sapiens) (P45983 whole entry): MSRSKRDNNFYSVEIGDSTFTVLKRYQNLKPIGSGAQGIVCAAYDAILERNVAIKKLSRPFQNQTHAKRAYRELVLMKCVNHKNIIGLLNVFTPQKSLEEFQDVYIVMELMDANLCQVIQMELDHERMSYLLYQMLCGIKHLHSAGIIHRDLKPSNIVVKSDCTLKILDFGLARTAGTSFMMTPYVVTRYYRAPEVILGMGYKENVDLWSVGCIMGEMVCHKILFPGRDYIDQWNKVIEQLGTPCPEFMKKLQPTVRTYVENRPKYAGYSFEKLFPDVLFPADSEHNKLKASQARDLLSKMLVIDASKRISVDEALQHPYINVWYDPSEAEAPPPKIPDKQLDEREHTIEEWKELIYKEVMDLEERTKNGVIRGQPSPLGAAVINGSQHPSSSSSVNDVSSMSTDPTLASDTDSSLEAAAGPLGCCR
# Chain of Calcium/calmodulin-dependent protein kinase type 1B (Homo sapiens) (Q6P2M8 whole entry): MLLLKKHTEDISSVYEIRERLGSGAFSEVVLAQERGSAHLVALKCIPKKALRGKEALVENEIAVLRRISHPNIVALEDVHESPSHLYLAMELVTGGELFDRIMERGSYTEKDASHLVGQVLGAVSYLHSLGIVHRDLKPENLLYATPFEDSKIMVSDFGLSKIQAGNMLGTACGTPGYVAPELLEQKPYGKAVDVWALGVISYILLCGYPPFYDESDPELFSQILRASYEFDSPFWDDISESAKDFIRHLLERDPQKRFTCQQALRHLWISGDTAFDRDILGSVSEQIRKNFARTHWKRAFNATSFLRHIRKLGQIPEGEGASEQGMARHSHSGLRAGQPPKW
# Chain of NUAK family SNF1-like kinase 1 (Homo sapiens) (O60285 whole entry): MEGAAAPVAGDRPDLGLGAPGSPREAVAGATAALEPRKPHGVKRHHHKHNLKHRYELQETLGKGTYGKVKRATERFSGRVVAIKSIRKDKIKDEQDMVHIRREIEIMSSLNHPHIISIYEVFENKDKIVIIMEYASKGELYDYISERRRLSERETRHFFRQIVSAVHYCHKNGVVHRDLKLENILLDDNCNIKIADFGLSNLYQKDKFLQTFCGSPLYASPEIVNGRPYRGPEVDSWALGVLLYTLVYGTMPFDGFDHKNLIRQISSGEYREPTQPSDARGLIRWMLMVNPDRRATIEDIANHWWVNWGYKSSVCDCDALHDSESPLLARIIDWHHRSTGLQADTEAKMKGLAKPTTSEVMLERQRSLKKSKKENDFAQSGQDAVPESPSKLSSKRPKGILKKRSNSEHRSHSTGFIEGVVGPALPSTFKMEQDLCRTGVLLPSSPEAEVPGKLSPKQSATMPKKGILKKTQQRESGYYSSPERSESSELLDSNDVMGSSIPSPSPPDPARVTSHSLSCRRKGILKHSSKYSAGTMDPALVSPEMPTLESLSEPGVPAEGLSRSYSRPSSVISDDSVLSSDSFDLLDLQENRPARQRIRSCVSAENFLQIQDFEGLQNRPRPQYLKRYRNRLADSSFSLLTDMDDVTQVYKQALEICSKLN
smiles,measurement,setting,value
COc1ccc(N2C(=O)COc3ccc(-c4cnc(OC)c(NS(=O)(=O)c5ccc(F)cc5)c4)cc32)cc1,inhibition,[1],Dose-dependent effect
same,inhibition,[2],1.19%
same,inhibition,[3],5.88%
same,inhibition,[4],-0.05%
same,inhibition,[5],0.26%
same,inhibition,[6],-8.49%
same,inhibition,[7],12.8%
same,inhibition,[8],7.52%
same,inhibition,[9],2.43%
same,inhibition,[10],0.23%
same,inhibition,[11],2.74%
same,inhibition,[12],16.6%
same,inhibition,[13],-7.54%
same,inhibition,[14],3.06%
same,inhibition,[15],17.4%
same,inhibition,[16],-0.95%
same,inhibition,[17],-6.25%
same,inhibition,[18],-1.62%
same,inhibition,[19],-1.63%
same,inhibition,[20],-8.9%
same,inhibition,[21],10.8%
same,inhibition,[22],0.23%
same,inhibition,[23],7.83%
same,inhibition,[24],2.41%
same,inhibition,[25],6.22%
same,inhibition,[26],14.2%
same,inhibition,[27],-4.06%
same,inhibition,[28],-3.23%
same,inhibition,[29],2.82%
same,inhibition,[30],0.68%
same,inhibition,[31],1.41%
